The text below walks through data of patent publication US8884030B2, “Inhibitors of Flaviviridae viruses” (priority 2010, dated 2014).

The test system of the assay is human hepatoma Huh-7 cell line harboring a HCV replicon. Briefly: HCV replicon assay (inhibition of viral replication, luciferase). The class given is cell-based. To be noted: Hepatitis C virus, 72 h; 2 μM; Huh-7 HCV replicon cells, 3 days incubation; inhibition of viral replication; read-out: % inhibition at 2 μM. Here is the method: The anti-HCV activity of the compounds of this invention was tested in a human hepatoma Huh-7 cell line harboring a HCV replicon. The assay comprised the following steps:
Step 1: Compound Preparation and Serial Dilution.
Serial dilution was performed in 100% DMSO in a 384-well plate. A solution containing a compound at 225-fold concentration of the starting final serial dilution concentration was prepared in 100% DMSO and 15 uL added to the pre-specified wells in column 3 or 13 of a polypropylene 384-well plate. The rest of the 384-well plate was filled with 10 uL 100% DMSO except for columns 23 and 24, where 10 uL of 500 uM a HCV protease inhibitor (ITMN-191) in 100% DMSO was added. The HCV protease inhibitor was used a control of 100% inhibition of HCV replication. The plate was then placed on a Biomek FX Workstation to start the serial dilution. The serial dilution was performed for ten cycles of 3-fold dilution from column 3 to 12 or from column 13 to 22.
Step 2: Cell Culture Plate Preparation and Compound Addition
To each well of a black polypropylene 384-well plate, 90 μL of cell media containing 1600 suspended Huh-7 HCV replicon cells was added with a Biotek uFlow Workstation. A volume of 0.4 μL of the compound solution was transferred from the serial dilution plate to the cell culture plate on a Biomek FX Workstation. The DMSO concentration in the final assay condition was 0.44%. The plates were incubated for 3 days at 37° C. with 5% CO2 and 85% humidity.
Step 3: Detection of Cytotoxicity and Inhibition of Viral Replication
a) Assessment of cytotoxicity: The media in the 384-well cell culture plate was aspirated with a Biotek EL405 plate-washer. A volume of 50 μL of a solution containing 400 nM Calcein AM in 100% PBS was added to each well of the plate with a Biotek uFlow Workstation. The plate was incubated for 30 minutes at room temperature before the fluorescence signal ([…]) was measured with a Perkin Elmer Envision Plate Reader.
b) Assessment of inhibition of viral replication: The calcein-PBS solution in the 384-well cell culture plate was aspirated with a Biotek EL405 plate-washer. A volume of 20 μL of Dual-Glo luciferase buffer (Promega, Dual-Glo Luciferase Assay Reagent, cat. #E298B) was added to each well of the plate with a Biotek uFlow Workstation. The plate was incubated for 10 minutes at room temperature. A volume of 20 μL of a solution containing 1:100 mixture of Dual-Glo Stop & Glo substrate(Promega, Dual-Glo Luciferase Assay Reagent, cat. #E313B) and Dual-Glo Stop & Glo buffer (Promega, Dual-Glo Luciferase Assay Reagent, cat. #E314B) was then added to each well of the plate with a Biotek uFlow Workstation. The plate was incubated at room temperature for 10 minutes before the luminescence signal was measured with a Perkin Elmer Envision Plate Reader.
The percent cytotoxicity was determined by calcein AM conversion to fluorescent product. The average fluorescent signal from the DMSO control wells were defined as 100% nontoxic. The individual fluorescent signal from testing compound treated well was divided by the average signal from DMSO control wells and then multiplied by 100% to get the percent viability. The percent anti-HCV replication activity was determined by the luminescence signal from the testing well compared to DMSO controls wells. The background signal was determined by the average luminescence signal from the HCV protease inhibitor treated wells and was subtracted from the signal from the testing wells as well as the DMSO control wells. Following 3-fold serial dilutions, the EC50 and CC50 values were calculated by fitting % inhibition at each concentration to the following equation: % inhibition=100%[(EC50/[l])^b+1]
Where b is Hill's coefficient. See, for reference, Hill, A. V., The Possible Effects of the Aggregation of the Molecules of Hæmoglobin on its Dissociation Curves, J. Physiol. 40: iv-vii. (1910). […]
On the technique in general: Replicon systems follow genome replication, usually without infectious particles.
The inhibition is the relative decrease from the control value, in per cent. Regarding `CC(C)(C)C#Cc1cc(N(C(=O)[C@H]2CC[C@H](C)CC2)[C@H]2CCN(C(=O)OC3CCS(=O)(=O)C3)C2)c(C(=O)O)s1` (stereo partly drawn) [Compound 70, 3-[[2-carboxy-5-(3,3-dimethyl-but-1-ynyl)-thiophene-3-yl]-(trans-4-methylcyclohexanecarbonyl)-3-(S)-amino]-pyrrolidine-1-carboxylic acid 1,1-dioxo-tetrahydro-1λ^6-thiophene-3-yl ester], the inhibition at 2 µM is 99.1%.

Take `CC(C)(C)C#Cc1cc(N(C(=O)[C@H]2CC[C@H](C)CC2)C2CCN(C(=O)OC3(C)CCN(C(=O)OC(C)(C)C)C3)CC2)c(C(=O)O)s1` (stereo partly shown) [Compound 71]: the inhibition at 2 µM turned out to be 95.1%.

For `CC(C)(C)C#Cc1cc(N(C(=O)[C@H]2CC[C@H](C)CC2)C2CCN(C(=O)OC3(C)CCNC3)CC2)c(C(=O)O)s1` (stereo partly drawn) [Compound 72, 4-[[2-Carboxy-5-(3,3-dimethyl-but-1-ynyl)-thiophen-3-yl]-(trans-4-methyl-cyclohexanecarbonyl)-amino]-piperidine-1-carboxylic acid 3-methyl-pyrrolidin-3-yl ester], the inhibition at 2 µM turned out to be 99.7%.

As to `CC(C)(C)C#Cc1cc(N(C(=O)[C@H]2CC[C@H](C)CC2)C2CCN(C(=O)OC3(C)CN(C(=O)OC(C)(C)C)C3)CC2)c(C(=O)O)s1` [Compound 73, 4-[[2-carboxy-5-(3,3-dimethyl-but-1-ynyl)-thiophen-3-yl]-(trans-4-methyl-cyclohexanecarbonyl)-amino]-piperidine-1-carboxylic acid 1-tert-butoxycarbonyl-3-methyl-azetidin-3-yl ester], the inhibition at 2 µM is 93.1%.

Turning to `CC(C)(C)C#Cc1cc(N(C(=O)[C@H]2CC[C@H](C)CC2)C2CCN(C(=O)OC3CCS(=O)(=O)C3)CC2)c(C(=O)O)s1` (stereo partly drawn) [Compound 74, 4-[[2-carboxy-5-(3,3-dimethyl-but-1-ynyl)-thiophen-3-yl]-(trans-4-methyl-cyclohexanecarbonyl)-amino]-piperidine-1-carboxylic acid 1,1-dioxo-tetrahydro-1λ^6-thiophen-3-yl ester], the inhibition at 2 µM was 99.7%.

As for `CC(C)(C)C#Cc1cc(N(C(=O)[C@H]2CC[C@H](C)CC2)C2CCC(NC(=O)OC3(C)CCN(C(=O)OC(C)(C)C)C3)CC2)c(C(=O)O)s1` (stereo partly shown) [Compound 75], the inhibition at 2 µM was found to be 97.5%.

In the case of `CC(C)(C)C#Cc1cc(N(C(=O)[C@H]2CC[C@H](C)CC2)C2CCC(NC(=O)OC3(C)CCNC3)CC2)c(C(=O)O)s1` (stereo partly drawn) [Compound 76, 5-(3,3-Dimethyl-but-1-ynyl)-3-{(trans-4-cyclohexanecarbonyl)-[4-(3-methyl-pyrrolidin-3-yloxycarbonylamino)-cyclohexyl]-amino}-thiophene-2-carboxylic acid], the inhibition at 2 µM was 99.4%.

On to `CC(C)(C)C#Cc1cc(N(C(=O)[C@H]2CC[C@H](C)CC2)C2CCC(NC(=O)OC3CCS(=O)(=O)C3)CC2)c(C(=O)O)s1` (stereo partly drawn) [Compound 77, 5-(3,3-dimethyl-but-1-ynyl)-3-[[4-(1,1-dioxo-tetrahydro-1λ^6-thiophen-3-yloxycarbonylamino)-cyclohexyl]-(trans-4-methylcyclohexanecarbonyl)-amino]-thiophene-2-carboxylic acid], for which the inhibition at 2 µM is 99.9%.

Turning to `CC1CCC(C(=O)N(c2cc(C#CC(C)(C)C)sc2C(=O)O)C2CCC(NN(C)c3ccccn3)CC2)CC1` (stereo not shown) [Compound 79, 5-(3,3-Dimethyl-but-1-ynyl)-3-{(4-methyl-cyclohexanecarbonyl)-[4-(N′-methyl-N′-pyridin-2-yl-hydrazino)-cyclohexyl]-amino}-thiophene-2-carboxylic acid], the inhibition at 2 µM amounted to 100%.

For the compound `CN(NC1CCC(N(c2cc(C#CC(C)(C)C)sc2C(=O)O)C(=O)[C@H]2CC[C@H](C)CC2)CC1)c1cnccn1` (stereo partly shown) [Compound 80, 5-(3,3-Dimethyl-but-1-ynyl)-3-{(4-methyl-cyclohexanecarbonyl)-[4-(N′-methyl-N′-pyrazin-2-yl-hydrazino)-cyclohexyl]-amino}-thiophene-2-carboxylic acid], the inhibition at 2 µM is 99.8%.

On to `CC1CCC(C(=O)N(c2cc(C#CC(C)(C)C)sc2C(=O)O)C2CCC(NN(C)c3nccs3)CC2)CC1` (stereo not shown) [Compound 81, 5-(3,3-Dimethyl-but-1-ynyl)-3-{(4-methyl-cyclohexanecarbonyl)-[4-(N′-methyl-N′-thiazol-2-yl-hydrazino)-cyclohexyl]-amino}-thiophene-2-carboxylic acid], for which the inhibition at 2 µM was 100%.

`CC1CCC(C(=O)N(c2cc(C#CC(C)(C)C)sc2C(=O)O)C2CCC(NN(C)c3ccc(O)nn3)CC2)CC1` (stereo not shown) [Compound 82, 5-(3,3-Dimethyl-but-1-ynyl)-3-[{4-[N′-(6-hydroxy-pyridazin-3-yl)-N′-methyl-hydrazino]-cyclohexyl}-(4-methyl-cyclohexanecarbonyl)-amino]-thiophene-2-carboxylic acid]: the inhibition at 2 µM came to 100%.

On to `CC1CCC(C(=O)N(c2cc(C#CC(C)(C)C)sc2C(=O)O)C2CCC(NN(C)c3ccc(Cl)nn3)CC2)CC1` (stereo not shown) [Compound 83, 3-[{4-[N′-(6-Chloro-pyridazin-3-yl)-N′-methyl-hydrazino]-cyclohexyl}-(4-methyl-cyclohexanecarbonyl)-amino]-5-(3,3-dimethyl-but-1-ynyl)-thiophene-2-carboxylic acid], for which the inhibition at 2 µM turned out to be 99.9%.

For the compound `CC(C)(C)C#Cc1cc(N(C(=O)[C@H]2CC[C@H](C)CC2)C2CCC(=NOCc3ccccn3)CC2)c(C(=O)O)s1` (stereo partly drawn) [Compound 112, 5-(3,3-Dimethyl-but-1-ynyl)-3-{(4-trans-methyl-cyclohexanecarbonyl)-[4-(pyridin-2-ylmethoxyimino)-cyclohexyl]-amino}-thiophene-2-carboxylic acid], the inhibition at 2 µM turned out to be 99.9%.

In the case of `CC(C)(C)C#Cc1cc(N(C(=O)[C@H]2CC[C@H](C)CC2)C2CCC(=NOCc3ccccc3)CC2)c(C(=O)O)s1` (stereo partly shown) [Compound 113], the inhibition at 2 µM worked out at 98.1%.

Turning to `CC(C)(C)C#Cc1cc(N(C(=O)[C@H]2CC[C@H](C)CC2)C2CCC(=NOCn3cncn3)CC2)c(C(=O)O)s1` (stereo partly shown) [Compound 114, 3-(N-(4-((1H-1,2,4-Triazol-1-yl)methoxyimino)cyclohexyl)-4-methylcyclohexanecarboxamido)-5-(3,3-dimethylbut-1-ynyl)thiophene-2-carboxylic acid], the inhibition at 2 µM worked out at 100%.

Turning to `CC(C)(C)C#Cc1cc(N(C(=O)[C@H]2CC[C@H](C)CC2)C2CCC(=NOCC(=O)O)CC2)c(C(=O)O)s1` (stereo partly shown) [Compound 115, 3-(N-(4-(Carboxymethoxyimino)cyclohexyl)-4-methylcyclohexanecarboxamido)-5-(3,3-dimethylbut-1-ynyl)thiophene-2-carboxylic acid], the inhibition at 2 µM stood at 99.8%.

On to `CC(C)(C)C#Cc1cc(N(C(=O)[C@H]2CC[C@H](C)CC2)C2CCC(=NOCC#N)CC2)c(C(=O)O)s1` (stereo partly shown) [Compound 116, 3-(N-(4-(Cyanomethoxyimino)cyclohexyl)-4-methylcyclohexanecarboxamido)-5-(3,3-dimethylbut-1-ynyl)thiophene-2-carboxylic acid], for which the inhibition at 2 µM was found to be 99.9%.

For the compound `CC1CCC(C(=O)N(c2cc(C#CC(C)(C)C)sc2C(=O)O)C2CCC(=NOCc3ccncc3)CC2)CC1` (stereo not shown) [Compound 117, 5-(3,3-Dimethylbut-1-ynyl)-3-(4-methyl-N-(4-(pyridin-4-ylmethoxyimino)cyclohexyl)cyclohexanecarboxamido)thiophene-2-carboxylic acid], the inhibition at 2 µM is 99.9%.
